US20210163489A1, “PYRAZOLOPYRIMIDINE DERIVATIVES AND THE COMPOSITIONS AND METHODS OF TREATMENT REGARDING THE SAME” (NysnoBio Ireland DAC, priority 2016, published 2021)

Biological target: T1, Parkin (Homo sapiens, UniProt O60260)
T1 construct: Enzyme 3: Parkin-His tagged 203 μM (10.5 mg/ml)
Experiment: Parkin pUB auto-ubiquitinylation assay (TR-FRET)
Assay type: biochemical
Details: activation of pUb activated Parkin; read-out: Auto-ubiq EC50 (μM) [Example 3]
Text: A Parkin pUB Auto-ubiquitinylation Assay is used to evaluate a compound's potency to activate Parkin's ability to Auto-ubiquitinylate itself.
The principle of this assay is that the E3 Ligase Parkin catalyzes the transfer of Ubiquitin to target proteins, but also has the ability to auto-ubiquitinylate itself. The phospho-Ubiquition (pUb) added to the assay alters the Parkin to a state where small molecule activators can enable the Parkin to auto-ubiquitinylate though the E1-E2 cascade reaction. The use of a Eu cryptate Ubiquition and anti 6His-d2 that binds to the His tagged Parkin will give a signal when the Eu cryptate Ubiquition is auto-ubiquitinylate onto the Parkin which can be monitored by TR-FRET.
Similar to the Activity-based probe assay in Example 2, screening for activating compounds can be distinguished from the controls as follows:
100% activation signal=pUb activated Parkin+40 nM control activator in DMSO. 0% activation signal=pUb activated Parkin+DMSO only. Parkin activators can be identified by an increase of the 0% activation signal TR-FRET signal.
• Assay Plate: White 384 well plate (Corning 3572) • Enzyme 1: E1 (Ubiquitin-activating enzyme/UBE1 Boston Biochem E-305) • Enzyme 2: E2 (UBcH7/Ube2L3 Boston Biochem E2-640) • Enzyme 3: Parkin-His tagged 203 μM (10.5 mg/ml) • pUb: Phospho-Ubiquitin (S65) (Boston Biochem U-102) • Eu Cryptate Reagent: Ubiquitin Eu (CisBio 61UBIKLA) • DMSO: DMSO (Sigma-34869-2.5L) • Reaction Buffer: 50 mM HEPES, 50 mM NaCl, 1 mM MgCl2, 0.005% Tween 20, 0.1% • PF-127 (Fisher Scientific 50-310-494), pH 8.5 • Detection Buffer: 50 mM HEPES, 50 mM NaCl, 800 mM KF, 5 mM EDTA, 0.005% • Tween 20, 0.1% PF-127, pH 8.5 • Detection Reagent Z: 13.4 nM Anti-6His-d2 in detection buffer • d2 Reagent: Anti-6His-d2 (CisBio 61HISDLA)
Enzyme Reaction (15 min Pre-Incubation with Parkin, pUb and Activator Only) • Parkin: 196 nM • pUb: 196 nM • DMSO: 1% DMSO • E1: 5 nM • E2: 50 nM • Ubiquitin Eu: 8.8 nM • Reaction time: 120 minutes • Temperature: 22° C. • Total volume: 10 μl reaction
Take 10 μl of Enzyme Reaction above and add 10 μl detection Reagent Z under the following conditions:
Reaction time: 60 minutes
1) Load assay plate wells with 4.9 μl 400.0 nM Parkin, 400 nM pUb in reaction buffer by use of Eppendorf 12-channel pipette. 2) Deliver 0.1 μl 100× activator candidates in DMSO by use of Echo 555 compound dispenser. Highest 100× concentration=100 μm and then twofold dilutions. Add each compound and control in duplicate wells. 3) Spin 1000 rpm, 2 minutes, at room temp. 4) Incubate plate for 15 minutes at room temp. 5) Add 5 μl 10 nM E1, 100 nM E2, 17.6 nM Ubiquitin Eu and 2 mM ATP in Reaction Buffer by use of Eppendorf 12-channel pipette. 6) Spin 1000 rpm, 2 minutes, at room temp. 7) Incubate plate for 120 minutes at room temp. 8) Add 10 μl 13.4 nM anti his d2 in detection buffer by use of Eppendorf 12-channel pipette. 9) Spin 1000 rpm, 2 minutes, at room temp. 10) Incubate plate for 120 minutes at room temp. 11) Read plates on Perkin Elmer Envision instrument with the following parameters:
LANCE dual laser protocol loaded into the Envision® software
Top Mirror: LANCE/DELFIA Duel/Bias (Bar code 446) Emission Filter: APC 665 EM (Bar code 205) 2nd Emission Filter: Europium 615 EM (Bar code 203) Read […] (channel 1) and 615 nm (channel 2) wavelengths on Envision®
Data Analysis: The Data can be read in CSV files. There are two tables in those CSV files, which are the values of 655 nm (channel 1) and 615 nm (channel 2) wavelengths respectively. The data is converted to an HTRF Ratio=(Channel 1/Channel 2)*10,000
The average of all the 0 uM controls (DMSO only)=BKGD (Background—0% activation). Subtract BKGD from each HTRF Ratio value=HTRF-BKGD. The average of all the 100 uM control activator in DMSO controls=Max (100% activation). The following equation is then used to calculate % Activation for each well/candidate as follows: % Activation=(HTRF−BKGD/Max)*100.
XLFIT5 model 205 was applied for the data analysis. […]

T1 sequence (O60260 whole entry, other chains not shown): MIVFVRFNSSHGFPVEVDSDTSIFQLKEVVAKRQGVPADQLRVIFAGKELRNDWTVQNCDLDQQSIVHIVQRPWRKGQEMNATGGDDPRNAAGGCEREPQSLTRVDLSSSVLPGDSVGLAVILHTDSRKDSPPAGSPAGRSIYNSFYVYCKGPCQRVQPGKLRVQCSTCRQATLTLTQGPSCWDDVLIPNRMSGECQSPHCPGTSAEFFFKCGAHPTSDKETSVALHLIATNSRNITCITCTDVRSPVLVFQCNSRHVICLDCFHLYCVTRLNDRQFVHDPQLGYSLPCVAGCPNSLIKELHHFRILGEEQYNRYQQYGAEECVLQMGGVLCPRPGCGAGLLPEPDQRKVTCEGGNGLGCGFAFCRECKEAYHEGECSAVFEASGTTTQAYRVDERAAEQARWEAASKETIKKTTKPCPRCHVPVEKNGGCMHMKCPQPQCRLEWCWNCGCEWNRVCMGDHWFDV

| SMILES | EC50 [µM] |
| --- | --- |
| Cc1nc2c(C#N)c(C)nn2c(O)c1Cc1ccccc1 [Compound GG, 6-benzyl-7-hydroxy-2,5-dimethyl-pyrazolo-[1,5-a]pyrimidine-3-carbonitrile] | > 40 |
| Oc1c(Cc2ccccc2)cnc2c(-c3ccccc3)cnn12 [Compound W, 6-benzyl-3-phenyl-pyrazolo[1,5-a]pyrimidin-7-ol] | > 40 |
| Cc1nn2c(S)c(C)c(Cc3ccccc3)nc2c1-c1ccccc1 [ZZ] | > 40 |
| Cc1nc2c(-c3ccccc3)c(C)nn2cc1Cc1ccccc1 [QQ] | > 40 |
| Cc1nc2c(-c3ccccc3)c(C)nn2c(S)c1Cc1ccccn1 [Compound BB, 2,5-dimethyl-3-phenyl-6-(2-pyridylmethyl)pyrazolo[1,5-a]pyrimidine-7-thiol] | 8.8 |
| Cc1cc2nc(C)c(Cc3ccccc3)c(O)n2n1 [Q] | > 40 |

Further lines, results first:

| EC50 [µM] | SMILES |
| --- | --- |
| > 40 | Cc1nn2c(O)c(CC(C)C)cnc2c1-c1ccccc1 [Compound I3] |
| 29 | Cc1nn2c(S)c(CCc3ccccc3)cnc2c1-c1ccccc1 [Compound E3] |
